# Assay results as given in patent US20230018014A1, “NOVEL COMPOUNDS AND FORMULATIONS” (PRO-AL MEDICO-TECHNOLOGIES, INC., priority 2019, published 2023).
# How the values were obtained:
# [1] = system: chick embryo chorioallantoic membrane (CAM); assay: chick embryo chorioallantoic membrane (CAM) angiogenesis model; type: in vivo
# From the text: (§1) This study aimed to investigate the positive protective role of T3, T3 nanoparticles and nanoparticles of T3 and phosphocreatine (PCR) in hypoxia-mediated cardiac cell insults, as well as its influences on vascularization and neuronal protection, under hypoxic condition. […] Mitochondrial function and sarcomere integrity were studied using an ATP-bioluminescence assay, and cardiac Troponin T levels using flow cytometry, respectively.
# neonatal cardiomyocytes [2] = assay: neonatal cardiomyocyte contraction under normoxic and hypoxic condition; type: cell-based
# neonatal cardiomyocytes [3] = assay: ATP-bioluminescence assay in isolated neonatal cardiomyocytes under hypoxia; type: cell-based; conditions: 4% oxygen, 5% CO2, 37° C., 24 hours
# Protocol: as §1
# (§2) The cells were cultured in a hypoxia incubator with 4% oxygen, 5% CO2 at 37° C. for 24 hours. Following incubation, the cells were collected and compared with those of normal condition. Mitochondrial function and sarcomere integrity were studied using an ATP-bioluminescence assay, and cardiac Troponin T levels using flow cytometry after adding troponin T antibody conjugated with FITC.
# neonatal cardiomyocytes [4] = assay: cardiac Troponin T levels by flow cytometry in neonatal cardiomyocytes under hypoxia; type: cell-based; conditions: 4% oxygen, 5% CO2, 37° C., 24 hours
# Protocol: as §1, §2
# [5] = system: T3-induced cells (HS5) and PC12 neuronal cells; assay: ATP-bioluminescence in T3-induced cells (HS5) and PC12 neuronal cells under hypoxia (Example 6); type: cell-based; conditions: hypoxia 24 hours; Epinephrine 0.5 μM
# Protocol: (§3) The cells were then cultured under hypoxia for 24 hours. Results using ATP-bioluminescence and LDH release assays.
# [6] = system: T3-induced cells (HS5) and PC12 neuronal cells; assay: LDH release assay in T3-induced cells (HS5) and PC12 neuronal cells under hypoxia (Example 6); type: cell-based; conditions: hypoxia 24 hours; Epinephrine 0.5 μM
# Protocol: as §3
# swine = assay: porcine cardiac arrest model; type: in vivo
# Protocol: In this study, swine were subjected to 7 minutes of cardiac arrest followed by manual CPR for up to 20 minutes with defibrillation every 2 minutes as necessary. […] In animals that achieved ROSC (unassisted systolic BP>80 mmHg for 1 min), further pharmacologic support was limited to 1 additional dose of the selected drug for hypotension. Hemodynamics, left ventricular (LV) function, plasma cardiac troponin I (cTnl) and other parameters were assessed at baseline and for up to 4 hours post-ROSC.
# [7] = system: Neuron-Specific Enolase (NSE); assay: Neuron-Specific Enolase ELISA in pig blood plasma after cardiac arrest and resuscitation; type: in vivo; conditions: 2 hours post-ROSC
# Protocol: The blood samples were collected from pigs subjected to cardiac arrest and resuscitation as described in Example 7. […] At 2 hours post-ROSC, blood samples were collected from a peripheral vein into tubes with EDTA and centrifuged for 15 minutes. The plasma samples were then used for the NSE assay based on the manufacturer's instructions.
# [8] = within the first 5 minutes post-ROSC
compound,measurement,setting,value
"bFGF: basic fibroblast growth factor, positive comparator in the CAM model",Branch points (SEM),"[1]; bFGF, dose not given",115.4 ± 3.2
"N[C@@H](Cc1cc(I)c(Oc2ccc(O)c(I)c2)c(I)c1)C(=O)O [T3, triiodothyronine]",enhanced angiogenesis compared to the control group,[1],~3 fold
same,Branch points (SEM),[1]; 10 μg,158.4 ± 5.5
same,improvement in observed branch points in comparison with bFGF,"[1]; T3 10 μg, Nano-T3 1 μg",37%
same,contraction levels in cardiomyocytes (in words),neonatal cardiomyocytes [2]; hypoxia,close to those of the cells under normal conditions
CNC[C@H](O)c1ccc(O)c(O)c1 [Epinephrine],cardiac ATP levels (in words),neonatal cardiomyocytes [3],close to untreated hypoxic cardiomyocytes
same,Troponin T levels (in words),neonatal cardiomyocytes [4],close to untreated hypoxic cardiomyocytes
same,Contraction/min,neonatal cardiomyocytes [2]; hypoxia,28 min⁻¹
same,Rhythm,neonatal cardiomyocytes [2]; hypoxia,Irregular
same,Contraction/min,neonatal cardiomyocytes [2]; normoxia,186 min⁻¹
same,Rhythm,neonatal cardiomyocytes [2]; normoxia,Regular
same,ATP levels (in words),[5],increased slightly
same,LDH levels (in words),[6],showed an increase
same,higher concentration of cTnl,"swine; post-ROSC, versus the nanoparticle groups",2 fold
same,rate of ROSC (in words),"swine; swine, 7 minutes of cardiac arrest, intravenous, nanoparticles 0.125 mg/kg, Epinephrine 0.015 mg/kg",higher
same,survival duration,"swine; swine, post-ROSC, up to 4 hours, nanoparticles 0.125 mg/kg, Epinephrine 0.015 mg/kg",116 ± 26 min
same,coronary sinus PCO2 compared to vehicle (in words),swine; [8],not
same,coronary sinus pH compared to vehicle (in words),swine; [8],not
same,increase of NSE over baseline,[7],64%
